Measurements as given in US7781394B2 (Institut Pasteur, priority 2006, dated 2010).
Where two headings read alike, the source gives them in different places. Each block holds one compound with its values, some of them ahead of it.

Assays:
Format in all cases: biochemical
[1] = molecular target: T1, His-RCL (deoxynucleoside 5′-monophosphate N-glycosidase) (Rattus norvegicus, UniProt O35820); assay: Kinetic parameters of His-RCL (wild-type) with dNMP substrates, initial velocity measurements
T1 construct: made in house; host or cells: E. coli Bli5 (BL21 (DE3) pDIA17), plasmid pET28aRcl
T1 sequence (O35820 1-163): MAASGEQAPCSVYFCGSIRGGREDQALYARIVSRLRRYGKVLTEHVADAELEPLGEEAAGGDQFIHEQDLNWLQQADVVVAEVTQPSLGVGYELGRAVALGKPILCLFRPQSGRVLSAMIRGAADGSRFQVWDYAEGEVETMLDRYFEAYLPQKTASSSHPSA

[2] = molecular target: T2, RCL (Rattus norvegicus, UniProt O35820); assay: Compounds tested as substrate or inhibitor of RCL enzyme activity (dGMP hydrolysis); settings: for substrate or inhibitor of the enzyme activity: versus dGMP as substrate; for Ki: competitive for dGMP, double reciprocal plot
T2 construct: made in house; host or cells: E. coli Bli5 (BL21 (DE3) pDIA17); pET24dRcl (untagged) or pET28aRcl (His-tagged)
T2 sequence (O35820 1-163): T1 sequence (O35820 1-163)
Experimental: The enzyme activity was determined either spectrophotometrically by following one of the reaction products, […] or deoxyribose 5-phosphate, or by HPLC separation and UV detection of the released nucleobase and the remaining substrate.
The initial velocity of the reaction was measured either at variable concentration of dGMP both in the absence and presence of inhibitors, or at fixed concentration of dGMP and variable concentrations of inhibitors allowing the testing of the nature of the inhibition.

[3] = molecular target: T2, RCL; assay: pH dependence of RCL activity at saturating substrate; settings: for % of the maximal activity: pH 7.0; for % of the enzyme activity remained: pH 8.0; for pH optimum: saturating concentrations of substrate
Experimental: Catalytic properties of the recombinant proteins. […] 50% of the maximal activity was still observed at pH 7.0 in the case of dCMP while it was only 20% in the case of dGMP. In both cases at pH 8.0, only 10% of the enzyme activity remained. Several metals were tested for their ability to stimulate or inhibit the reaction: Ca^2+, Mg^2+, Zn^2+, Na^+, and K^+.

[4] = Table 1, substrate of His-RCL, five concentrations
[5] = pyrimidine deoxynucleotides, read-out: Km of RCL
[6] = Table 3, additional substrates of His-RCL, in 1/s
[7] = Table 3, additional substrates of His-RCL, read-out: Km
[8] = purine deoxynucleotides, read-out: Km of RCL

SMILES: COc1nc(N)nc2c1ncn2[C@H]1C[C@H](O)[C@@H](COP(=O)(O)O)O1 [06-methyl-dGMP]
- kcat [1, 6]: 0.033
- Km [1, 7]: 61 ± 16 µM

SMILES: NC1=NC(=O)C2=NC(=O)N([C@H]3C[C@H](O)[C@@H](COP(=O)(O)O)O3)C2=N1 [8-oxo-dGMP, 8-oxo-deoxyguanosine 5′-monophosphate]
- substrate or inhibitor of the enzyme activity [2]: neither a substrate nor an inhibitor

SMILES: Nc1nc2c(ncn2[C@H]2C[C@H](O)[C@@H](COP(=O)(O)O)O2)c(=O)[nH]1 [dGMP]
- % of the maximal activity [3]: 20%
- % of the enzyme activity remained [3]: 10%
- pH optimum [3]: ~6.0 pH
- Vmax [1]: 0.09 U. mg^−1
- kcat [1, 4]: 0.0297 s⁻¹
- kcat ([1]; Table 2, Wt His-RCL, dGMP 250 μM to 20 mM): 0.0298 s⁻¹
- kcat [1, 6]: 0.033
- Km [1, 7]: 77 ± 20 µM
- kcat ([1]; corresponds to Vmax): 0.0268 s⁻¹
- times more efficiently cleaved than dAMP ([1]; kcat/Km comparison): 20 times
- times more efficiently cleaved than dIMP ([1]; kcat/Km comparison): 40 times
- Km [1, 8]: 50 µM

SMILES: CSc1nc(N)nc2c1ncn2[C@@H]1O[C@H](COP(=O)(O)O)[C@@H](O)[C@H]1O
- Ki [2]: 10 µM
- substrate or inhibitor of the enzyme activity [2]: competitive inhibitors

SMILES: Nc1nc2c(ncn2[C@@H]2O[C@H](COP(=O)(O)O)[C@@H](O)[C@H]2O)c(=O)[nH]1 [GMP]
- Ki [2]: 20 µM
- substrate or inhibitor of the enzyme activity [2]: competitive inhibitors

SMILES: Cc1cn([C@H]2C[C@H](O)[C@@H](COP(=O)(O)O)O2)c(=O)[nH]c1=O [dTMP]
- Km [1, 5]: > 50000 µM

SMILES: Nc1ccn([C@H]2C[C@H](O)[C@@H](COP(=O)(O)O)O2)c(=O)n1 [dCMP]
- % of the maximal activity [3]: 50%
- % of the enzyme activity remained [3]: 10%
- pH optimum [3]: ~6.0 pH
- kcat [1, 4]: 0.0231 s⁻¹
- Km [1, 5]: 4000 µM

The next lines start with the values.

- kcat [1, 4]: 0.158 s⁻¹
- Km [1, 5]: 15000 µM
SMILES: O=c1ccn([C@H]2C[C@H](O)[C@@H](COP(=O)(O)O)O2)c(=O)[nH]1 [dUMP]

- kcat [1, 6]: 2.376
- Km [1, 7]: 470 ± 68 µM
SMILES: C[n+]1cn([C@H]2C[C@H](O)[C@@H](COP(=O)(O)O)O2)c2nc(N)[nH]c(=O)c21 [N7-methyl-dGMP]

- kcat [1, 4]: 0.0066 s⁻¹
- Km [1, 8]: 250 µM
SMILES: Nc1ncnc2c1ncn2[C@H]1C[C@H](O)[C@@H](COP(=O)(O)O)O1 [dAMP]

- substrate or inhibitor of the enzyme activity [2]: neither a substrate nor an inhibitor
SMILES: Nc1nc2c(ncn2[C@H]2C[C@H](OP(=O)(O)O)[C@@H](CO)O2)c(=O)[nH]1 [2′-deoxyguanosine 3′-monophosphate]

- kcat [1, 6]: 0.0528
- Km [1, 7]: 71 ± 8 µM
SMILES: CCNc1nc2c(ncn2[C@H]2C[C@H](O)[C@@H](COP(=O)(O)O)O2)c(=O)[nH]1 [N2-ethyl-dGMP]
